According to patent US6159705A, “Recombinant yeast cells for identifying receptor effectors” (Cadus Pharmaceutical Corporation, priority 1997, dated 2000):
Like-named read-outs stand apart in the source and are kept apart here. Where no end group is shown, it is not given here.

How the values were obtained:
[1] = test system: human orphan receptor FPRL-1; assay: Growth on -Leu-Ura-His + 2.5 mM AT, yeast expressing FPRL-1; assay type: cell-based; details: yeast bearing FPRL-1-encoding plasmid (CY6571), plasmids A1 and A3-A10
From the text: The yeast strain CY1141 (MATalpha far1*1441 tbt1-1 fus1-HIS3 can 1 ste14::trp1:;LYS2 ste3*1156 gpa1(41)-Galphai2 lys2 ura3 leu2 trp1 his3) was used in the experiments that follow. CY1141 contains a pheromone inducible HIS3 gene, fus1-HIS3 integrated at the FUS1 locus and a hybrid gene encoding the first 41 amino acids of GPA1 (yeast G alpha) fused to sequence encoding human G alphai2 (lacking codons encoding the N-terminal 33 amino acids) replacing GPA1 at its chromosomal locus. The yeast STE14 gene is disrupted to lower the basal level of signaling through the pheromone response pathway. The yeast a-factor receptor gene, STE3, is deleted. CY1141 was transformed with Cadus 2311 to yield CY6571, a strain expressing the human orphan receptor, FPRL-1.
It was determined that the yeast growth on selective media that resulted from LIRMA was eliminated by the additional of 2.5 millimolar concentrations of 3-aminotriazole (AT). AT is an inhibitor of the HIS3 gene product that serves to reduce background growth. […]
CY6571 was inoculated to 10 mls of standard synthetic media (SD) lacking leucine (-Leu) and incubated overnight at 30° C. […] The OD600 of each cell suspension was determined and crude plasmid isolations were done on 8-16 OD units of cells for each pool. […]

[2] = biological target: T1, FPRL-1 receptor (Homo sapiens, UniProt P25090)
T1 sequence (P25090 1-351): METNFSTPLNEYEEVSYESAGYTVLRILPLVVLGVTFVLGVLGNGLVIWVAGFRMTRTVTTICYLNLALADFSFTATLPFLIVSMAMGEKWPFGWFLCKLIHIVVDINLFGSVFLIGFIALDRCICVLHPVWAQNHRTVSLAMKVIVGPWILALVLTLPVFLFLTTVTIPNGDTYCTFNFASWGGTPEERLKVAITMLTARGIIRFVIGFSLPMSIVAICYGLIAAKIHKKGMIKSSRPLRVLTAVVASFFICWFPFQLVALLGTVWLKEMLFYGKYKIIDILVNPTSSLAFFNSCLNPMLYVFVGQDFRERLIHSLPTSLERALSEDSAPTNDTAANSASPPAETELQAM
Method: For verificatiin of pheromone pathway activation and quantification of the stimulation, the activity of the fus1 promoter was determined colorimetrically using a fus1-lacZ fusion in a parallel set of test strains. CY1141, described above, was used as the recipient strain for these experiments. […] Four strains (bearing the identical plasmids) were grown overnight in minimal media lacking leucine, uracil, and tryptophan, pH8.6. The overnight cultures were used to inoculate -Leu -Ura -Trp pH6.8 media and these new cultures were grown for approximately 4.5-5 hours to an OD600 of less than 0.4.

[3] = test system: human thrombin receptor; assay: Growth on -Leu-Ura-His + 2.5 mM AT, yeast expressing thrombin receptor; assay type: cell-based; details: yeast bearing thrombin receptor plasmid (CY7467)
From the text: The amplified product was purified by gel electrophoresis, restricted with NcoI and BamHI and ligated to NcoI and BamHI-cut CADUS 1871, a PGK promoter-driven expression vector, to yield CADUS 2260. Cloning into CADUS 1871 introduces a novel stop codon preceded by the triplet GlySerVal after the authentic carboxy terminal codon of the human thrombin receptor (threonine). In addition, an invertase signal sequence is fused to the authentic amino terminus of the receptor.
The yeast strain CY1141 (MATalpha far1*1442 tbt1-1 fus1-HIS3 can1 ste14::trp1::LYS2 ste3* 1156 gpal(41)-Galphai2 lys2 ura3 leu2 trp1 his3) was transformed with CADUS 2260 to yield strain CY7467, expressing the human thrombin receptor. CY7467 was inoculated to 10 mls of standard synthetic media (SD) lacking leucine (-Leu) and incubated overnight at 30 C. […] The OD600 of each cell suspension was determined and crude plasmid isolations were done on 8-16 OD units of cells for each pool. […]
Strain CY7467 was transformed with […] of each plasmid pool by electroporation. […] The cells from each of these plates were scraped into 5 mls of H2 O, the OD600 of the cell suspensions were determined and crude plasmid isolations were done on 8-16 OD units of yeast cells. […]

[4] = test system: CY6571 yeast growth (HIS3 gene product); assay: Elimination of LIRMA growth, strain CY6571 (FPRL-1); assay type: cell-based, S. cerevisiae; details: CY6571, selective media
Method: (§1) It was determined that the yeast growth on selective media that resulted from LIRMA was eliminated by the additional of 2.5 millimolar concentrations of 3-aminotriazole (AT). AT is an inhibitor of the HIS3 gene product that serves to reduce background growth. Therefore, selection protocols aimed at the identification of surrogate ligands for the FPRL-1 receptor were carried out at this concentration of AT.

[5] = test system: CY7467 yeast growth (HIS3 gene product); assay: Elimination of LIRMA growth, strain CY7467 (thrombin receptor); assay type: cell-based, S. cerevisiae; details: CY7467, selective media
Method: as §1, with “addition” for “additional”, “novel peptide” for “surrogate”, “human thrombin” for “FPRL-1”

Compound: SLLWLTCRPWEAM [peptide A1]
- growth advantage on media lacking histidine [1]: conferred a growth advantage
- β-galactosidase activity ([2]; R+ L+ (CY1141/CADUS 2311/peptide A1/CADUS 1584)): 28 units
- β-galactosidase activity ([2]; R- L+ (CY1141/CADUS 1289/peptide A1/CADUS 1584)): 3.5 units
- stimulation over background levels of β-galactosidase ([2]; yeast cy1141): 8 fold

Compound: VCPARYVLPGPVL [SEQ ID NO:45, peptide from random library, conferring growth via human thrombin receptor]
- growth advantage on media lacking histidine [3]: conferred a growth advantage

Compound: Nc1nc[nH]n1 [3-aminotriazole]
- concentration at which LIRMA growth was eliminated [4]: 2.5 millimolar
- concentration at which LIRMA growth was eliminated [5]: 2.5 millimolar
